Assay results published in PMC3081989 (Biochemistry, 2010).
Where a SMILES comes first, the peptide text is derived from it.

Key:
[1] = tested on: hRXRα-LBD homodimer; experiment: hydrogen deuterium exchange mass spectrometry; type: binding, human
[2] = tested on: humans; conditions: cited from earlier work
[3] = target: T1, hRXRα-LBD:9cRA homodimers (Homo sapiens, UniProt P19793); experiment: isothermal titration calorimetry; conditions: 37 °C, buffer C pH 8.0, single-site binding model
T1 sequence (P19793 223-462): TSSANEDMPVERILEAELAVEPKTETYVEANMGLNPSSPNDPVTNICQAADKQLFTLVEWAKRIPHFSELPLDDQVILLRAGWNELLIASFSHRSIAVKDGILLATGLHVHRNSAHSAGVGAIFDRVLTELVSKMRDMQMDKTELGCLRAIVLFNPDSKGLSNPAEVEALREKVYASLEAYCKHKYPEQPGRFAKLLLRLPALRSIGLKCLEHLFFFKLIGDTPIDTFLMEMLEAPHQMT

[4] = target: GRIP-1 (NCOA2/TIF2) NR-box II coactivator peptide, 13-mer (UniProt Q15596); experiment: ITC; conditions: pH 8.0, 25 °C, 50 mM NaCl, buffer C: 10 mM Tris

For CC1=C(/C=C/C(C)=C\C=C\C(C)=C\C(=O)O)C(C)(C)CCC1 [9cRA, 9-cis-retinoic acid], the “reduction in deuterium incorporation, peptide L419-F438 (H11)” value ([1]; following 15 s of deuterium incorporation, 9cRA alone) was greater than 20%, the “rate of deuterium incorporation, H12 region” value ([1]; hRXRα-LBD:9cRA versus apo-hRXRα-LBD, GRIP-1 added to hRXRα-LBD:9cRA) was “unaltered rates of incorporation” and the “change in deuterium incorporation of peptides around the ligand binding pocket” value ([1]; relative to apo-hRXRα-LBD, upon 9cRA binding) was 10–37%. For the same compound, the “reduction in deuterium incorporation, peptide L301-L308 (H4)” value ([1]; text: upon the addition of GRIP-1 versus in the presence of 9cRA alone) was 12% and the toxicity ([2]; oral administration to humans) was “displays significant toxicity with oral administration to humans”.
In the case of CC[C@H](C)[C@H](NC(=O)[C@H](CCCCN)NC(=O)[C@H](Cc1c[nH]cn1)NC(=O)[C@@H](N)CCCCN)C(=O)N[C@@H](CC(C)C)C(=O)N[C@@H](Cc1c[nH]cn1)C(=O)N[C@@H](CCCNC(=N)N)C(=O)N[C@@H](CC(C)C)C(=O)N[C@@H](CC(C)C)C(=O)N[C@@H](CCC(N)=O)C(=O)N[C@@H](CC(=O)O)C(=O)N[C@@H](CO)C(=O)N[C@@H](CO)C(=O)O [GRIP-1] (H-KHKILHRLLQDSS-OH), the Kd [3] is reported as 1 ± 0.05 µM.
For C=C(c1ccc(C(=O)O)cc1)c1cc2c(cc1C)C(C)(C)CCC2(C)C [Targretin], the “dose limiting toxicities compared with 9cRA” value ([2]; oral treatment of cutaneous T-cell lymphoma) is listed as “significantly fewer dose limiting toxicities than 9cRA”.
Compound “Retinoid X receptor alpha ligand-binding domain, homodimer loaded with 9-cis-retinoic acid (hRXRalpha-LBD:9cRA)” has a ΔH [4] of -9.15 kcal/mol.
